Measured values from patent US10076522B2, “Systems and methods for treating bacterial infection” (priority 2016, dated 2018).
Converted amounts (≈) assume the structure as drawn. “Also recorded” adds a separate entry of the source.

What was measured:
[1] = target: T1, hERG-mediated potassium current (Homo sapiens, UniProt Q12809); test: Inhibition of hERG-mediated potassium current in transfected CHO cells; type: cell-based; settings: reversible inhibition
T1 construct: expressed in transfected cells; host or cells: CHO (Chinese Hamster Ovary) cells
T1 sequence (Q12809 whole entry): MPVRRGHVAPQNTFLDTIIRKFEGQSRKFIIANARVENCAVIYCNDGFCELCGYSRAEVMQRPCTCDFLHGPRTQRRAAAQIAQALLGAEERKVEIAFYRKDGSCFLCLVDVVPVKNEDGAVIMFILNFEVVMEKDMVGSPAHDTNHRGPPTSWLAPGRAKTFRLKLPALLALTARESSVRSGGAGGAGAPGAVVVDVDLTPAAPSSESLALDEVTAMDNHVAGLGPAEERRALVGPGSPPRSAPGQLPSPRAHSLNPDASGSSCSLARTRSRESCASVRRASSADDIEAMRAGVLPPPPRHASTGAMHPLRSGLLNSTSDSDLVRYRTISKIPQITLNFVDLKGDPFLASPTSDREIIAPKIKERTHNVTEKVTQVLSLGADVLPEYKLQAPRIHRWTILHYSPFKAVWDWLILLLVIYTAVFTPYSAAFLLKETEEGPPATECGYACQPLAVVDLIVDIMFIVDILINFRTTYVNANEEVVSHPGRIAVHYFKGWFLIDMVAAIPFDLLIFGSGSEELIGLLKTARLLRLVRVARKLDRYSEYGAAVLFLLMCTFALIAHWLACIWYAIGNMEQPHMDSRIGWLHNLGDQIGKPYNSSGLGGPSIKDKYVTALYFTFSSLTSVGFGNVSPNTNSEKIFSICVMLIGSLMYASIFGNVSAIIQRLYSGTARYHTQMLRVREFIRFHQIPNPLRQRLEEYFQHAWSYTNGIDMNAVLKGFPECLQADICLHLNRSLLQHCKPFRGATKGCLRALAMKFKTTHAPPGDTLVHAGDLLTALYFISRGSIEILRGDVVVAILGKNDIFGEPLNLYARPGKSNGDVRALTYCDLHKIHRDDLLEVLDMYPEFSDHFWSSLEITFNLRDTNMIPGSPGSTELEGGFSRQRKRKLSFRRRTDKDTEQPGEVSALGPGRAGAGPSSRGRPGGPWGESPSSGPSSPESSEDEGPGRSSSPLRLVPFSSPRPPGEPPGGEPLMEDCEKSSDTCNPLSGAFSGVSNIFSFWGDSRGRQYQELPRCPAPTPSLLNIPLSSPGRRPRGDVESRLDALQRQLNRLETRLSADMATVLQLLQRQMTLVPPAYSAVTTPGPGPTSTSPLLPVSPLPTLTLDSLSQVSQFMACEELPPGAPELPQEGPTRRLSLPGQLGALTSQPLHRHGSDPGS

SCNSA sodium channel = SCNSA sodium channel (Homo sapiens, UniProt Q14524); test: Sodium channel inhibition
SCNSA sodium channel, sequence (Q14524 whole entry): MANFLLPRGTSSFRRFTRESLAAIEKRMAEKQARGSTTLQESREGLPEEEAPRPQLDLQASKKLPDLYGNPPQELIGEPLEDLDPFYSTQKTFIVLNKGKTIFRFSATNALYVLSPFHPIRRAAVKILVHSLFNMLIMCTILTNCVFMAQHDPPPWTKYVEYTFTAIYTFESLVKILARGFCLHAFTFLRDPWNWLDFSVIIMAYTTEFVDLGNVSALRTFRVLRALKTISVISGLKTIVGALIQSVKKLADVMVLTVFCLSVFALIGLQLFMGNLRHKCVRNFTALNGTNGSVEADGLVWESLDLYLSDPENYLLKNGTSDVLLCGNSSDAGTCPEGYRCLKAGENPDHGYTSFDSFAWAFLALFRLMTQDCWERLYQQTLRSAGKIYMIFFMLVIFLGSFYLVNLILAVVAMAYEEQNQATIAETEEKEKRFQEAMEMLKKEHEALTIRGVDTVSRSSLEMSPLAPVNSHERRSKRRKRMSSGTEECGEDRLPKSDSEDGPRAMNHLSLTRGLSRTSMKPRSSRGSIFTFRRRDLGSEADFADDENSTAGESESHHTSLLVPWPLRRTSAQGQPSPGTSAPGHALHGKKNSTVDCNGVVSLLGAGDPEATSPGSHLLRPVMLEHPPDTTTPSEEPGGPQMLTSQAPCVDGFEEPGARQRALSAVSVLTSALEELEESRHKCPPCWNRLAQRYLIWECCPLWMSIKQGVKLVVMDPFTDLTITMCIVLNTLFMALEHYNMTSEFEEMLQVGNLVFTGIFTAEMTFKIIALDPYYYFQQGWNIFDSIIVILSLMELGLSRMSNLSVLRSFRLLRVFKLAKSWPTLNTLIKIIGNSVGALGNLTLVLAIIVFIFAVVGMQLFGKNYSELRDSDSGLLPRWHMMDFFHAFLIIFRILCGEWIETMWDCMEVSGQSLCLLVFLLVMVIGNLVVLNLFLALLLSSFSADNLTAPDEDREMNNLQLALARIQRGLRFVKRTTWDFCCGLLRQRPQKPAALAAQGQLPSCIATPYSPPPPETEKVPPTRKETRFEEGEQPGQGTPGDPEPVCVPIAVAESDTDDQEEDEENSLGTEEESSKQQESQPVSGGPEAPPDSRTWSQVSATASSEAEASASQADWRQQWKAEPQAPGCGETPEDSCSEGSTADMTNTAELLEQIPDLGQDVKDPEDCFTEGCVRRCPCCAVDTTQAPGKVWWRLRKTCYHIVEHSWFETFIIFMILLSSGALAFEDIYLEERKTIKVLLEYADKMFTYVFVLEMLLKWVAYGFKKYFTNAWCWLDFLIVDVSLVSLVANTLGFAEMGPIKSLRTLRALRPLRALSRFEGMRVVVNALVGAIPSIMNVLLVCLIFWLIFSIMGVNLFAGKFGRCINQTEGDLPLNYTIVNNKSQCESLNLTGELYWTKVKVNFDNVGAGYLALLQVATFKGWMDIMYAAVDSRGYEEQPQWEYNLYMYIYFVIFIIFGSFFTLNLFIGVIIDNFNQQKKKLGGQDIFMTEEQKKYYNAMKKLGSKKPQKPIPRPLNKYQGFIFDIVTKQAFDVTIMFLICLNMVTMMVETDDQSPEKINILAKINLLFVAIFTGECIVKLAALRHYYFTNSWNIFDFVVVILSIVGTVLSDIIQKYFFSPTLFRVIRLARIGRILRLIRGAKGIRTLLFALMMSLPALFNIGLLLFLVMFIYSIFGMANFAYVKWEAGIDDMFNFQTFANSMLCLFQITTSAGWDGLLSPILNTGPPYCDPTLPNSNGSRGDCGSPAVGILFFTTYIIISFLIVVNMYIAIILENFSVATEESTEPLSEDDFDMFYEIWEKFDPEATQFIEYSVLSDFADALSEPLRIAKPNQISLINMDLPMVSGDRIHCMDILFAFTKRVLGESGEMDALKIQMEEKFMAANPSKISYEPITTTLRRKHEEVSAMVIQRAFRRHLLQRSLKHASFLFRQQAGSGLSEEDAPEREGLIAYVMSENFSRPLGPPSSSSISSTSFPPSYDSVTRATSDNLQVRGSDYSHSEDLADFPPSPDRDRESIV

[2] = Single-dose ECG study in healthy human volunteers (1.6 and 3.2 mg/kg over 30 minutes); type: in vivo
Description: Based on this, a single-dose ECG-study was conducted in healthy human volunteers, where 1.6 mg/kg and 3.2 mg/kg iclaprim was infused over 30 minutes. […] Maximal increases coincided with Cmax levels and were rapidly reversible. Weight-based dosing with 1.6 mg/kg was thus assessed as acceptable for clinical purposes, whereas weight-based dosing at 3.2 mg/kg was associated with relevant QTc prolongations (>60 msec) and nonspecific T-wave alterations, and was not used for further clinical studies.

clinical [3] = settings: human, in vivo, iv, 0.8 mg/kg, mean Cmax
Description: (§1) For example, the PK profile of 0.8 mg/kg iclaprim administered by IV was investigated in 8 subjects with mild to moderate obesity (body mass index or “BMI” 30-40) and in 8 subjects with severe obesity (BMI>40). […] Linear regression analysis indicated a strong linear relationship between AUC (and Cmax) and BMI. Thus it was clear that the body composition of the subject affected the pharmacokinetics of IV administered iclaprim, with a greater percentage of body fat causing an increase in AUC and Cmax. […] Thus there is a risk of overdosing subjects with moderate hepatic impairment, which can be mitigated by reducing the IV iclaprim dose by about 50%.

[4] = PK of IV iclaprim in subjects with moderate hepatic impairment; type: in vivo, human; settings: moderate hepatic impairment (Child-Pugh grade B)
Description: as §1

[5] = human, in vivo
cSSSIs = test: Phase III ASSIST trials, efficacy in cSSSI; type: in vivo, human; settings: 0.8 mg/kg over 0.5 hr q12h IV
Text: Without wishing to be bound by a particular theory, one observed disadvantage of the weight-based dosing in the previous Phase III studies is that the post-antibiotic effect achieved by the weight-based doses was not enough to sustain the T>MIC between doses. Sufficient efficacy might be achieved by increasing the amount of iclaprim administered to the subject. However, as discussed above, simply increasing the weight-based dose of iclaprim risks causing QTc prolongation.

S. aureus = test: MIC90 in worldwide surveillance studies; type: cell-based; settings: Staphylococcus aureus
Description: The ASSIST-1 and ASSIST-2 studies used sparse sampling with a population PK analysis. The post-hoc estimates of the individual subject PK parameters were used to simulate the plasma iclaprim concentration-time profiles for each subject and, from those profiles, the corresponding values for Cmaxss, AUC0-24hss, AUC/MIC, and T>MIC.

[6] = tested on: acute bacterial skin and skin structure infections (ABSSSIs) suspected or confirmed to be due to Gram-positive pathogens; test: Phase III REVIVE-1 study, efficacy of fixed dose iclaprim versus vancomycin; type: in vivo, human; settings: ITT; for non-inferiority (10% margin) compared to vancomycin: 80 mg over 2 hr q12h IV
Description: Subjects were evaluated daily up to ETP, then every 48 to 72 hours through the end of treatment. If the last dose of study drug fell on a day when an evaluation was not planned, an additional evaluation visit was performed on that day (i.e., all EOT evaluations were performed on the last day [+2 days] of drug dose).
The infusion time and duration of treatment for both groups was 2 hours and 5 days (minimum duration) to 14 days (maximum duration), respectively.
The primary endpoint for clinical response (defined as the reduction in lesion size ≥20% compared to baseline) was evaluated in all randomized subjects at ETP (48 to 72 hours post-first dose). […] In addition, clinical outcome was evaluated by the investigator at EOT and TOC (7 to 14 days post EOT). The assessments of clinical outcome was categorized as cure, failure, or indeterminate.
Iclaprim was administered at a dose of 80 mg in 500 mL normal saline, infused over 2 hours q12h (every 12 hours) for 5 to 14 days. For subjects with moderate hepatic impairment (Child-Pugh Class B), iclaprim was administered at a dose of 40 mg in 500 mL normal saline, infused over 2 hours q12h for 5 to 14 days.
Dosing interval was every q12 h, q24 h, q48 h, or dosed by daily level based on creatinine clearance.
The primary efficacy endpoint was the proportion of randomized subjects who achieved an early clinical response (defined as reduction in the lesion size ≥20% compared to baseline) at 48 to 72 hours (ETP) and was evaluated among all randomized subjects (ITT population).
The NI bound were 10%. […] Equivalently, if the lower bound of the two-sided 95% CI for P1-P2 was greater than −0.100 based on the Z test with unpooled variance estimate, NI was concluded.

[7] = tested on: isolated rabbit Purkinje fibers
[8] = both, human, in vivo
Description: A second single-dose ECG study was conducted on healthy human volunteers using weight-based doses of 0.4 mg/kg and 0.8 mg/kg iclaprim base infused over 30 minutes and 1.6 mg/kg infused over 60 minutes.

[9] = in vivo
clinical [10] = settings: human, in vivo
clinical [11] = settings: human, in vivo, 1 mg/kg
[12] = Exposure to iclaprim in Phase I studies; settings: human, plasma, intravenous, HMR 01-014, Multiple Dose Q12H × 9 days, arithmetic mean
[13] = 13-week toxicology study in the rat, AUC at NOAEL; settings: in vivo
[14] = 13-week toxicology study in the marmoset, AUC at NOAEL; settings: monkey, in vivo
[15] = 150 mg, 150 mg/EtOH & NS (20 min)

`COc1cc(Cc2cnc(N)nc2N)c2c(c1OC)OC(C1CC1)C=C2` (racemic) [Iclaprim] gave an IC50 [1] of 0.9 µM, an IC50 (SCNSA sodium channel) of 95 µM and a QTc prolongations ([2]; 3.2 mg/kg infused over 30 minutes) of over 60 ms. The “effect on QTc interval” value ([2]; 1.6 and 3.2 mg/kg infused over 30 minutes, dose-dependent) was “prolonged the QTc interval”, the Cmax (clinical [3]) was 854 ng/mL and the “increase in AUC” value [4] was 2.5 fold. For the same compound, the “increase in Cmax” value [4] was 1.4 fold, the “adverse events related to QTc prolongation” value [5] was 4 cases and the “efficacy, non-inferiority (−10% margin) to linezolid” value (cSSSIs) was “did not meet the FDA criteria of non-inferiority to linezolid; also recorded: failed to show efficacy”. The MIC90 (S. aureus) was 0.12 µg/mL (≈ 0.339 µM), the “non-inferiority (10% margin) compared to vancomycin” value ([6]; ETP) was “achieved the primary endpoint of non-inferiority; also recorded: non-inferior” and the “non-inferiority (10% margin) compared to vancomycin” value ([6]; TOC) was “achieved NI”. For the same compound, the “Early Clinical Response (ECR), number of subjects” value ([6]; ETP (48 to 72 hours)) was 241, the “Early Clinical Response (ECR), percent of subjects” value ([6]; ETP (48 to 72 hours)) was 80.9% and the “Early Clinical Response (ECR), % Difference iclaprim vs vancomycin” value ([6]; ETP) was −0.13%. The “Clinical cure, number of subjects” value ([6]; TOC (7 to 14 days after study drug discontinuation)) was 251, the “Clinical cure, % Difference iclaprim vs vancomycin” value ([6]; TOC) was −2.77% and the “Clinical cure, percent of subjects” value ([6]; TOC) was 84.2%. The “concentration above which action potential duration was increased” value [7] was “above 1 μM”, the “post-infusion QTcF prolongation from baseline (any subject)” value [8] was at most 60 ms and the “dose-related increase in QTc” value [9] was “did not”. The AUC (clinical [10]; 0.25 mg/kg) was 598 ± 270 ng·h/mL, the Cmax (clinical [10]; 0.25 mg/kg) was 686 ± 279 ng/mL and the AUC (clinical [10]; 0.5 mg/kg) was 996 ng·h/mL. The AUC (clinical [10]; 1 mg/kg) was 1980 ng·h/mL, the AUC (clinical [10]; 2 mg/kg) was 4040 ng·h/mL and the AUC (clinical [10]; 4 mg/kg) was 6810 ng·h/mL. It also gave a Cmax (clinical [10]; 4 mg/kg) of 4020 ng/mL, a Cmax (clinical [11]) of 792 ng/mL and an AUC ([12]; 75 mg, 75 mg/10% PG (20 min)) of 1660 ng·h/mL. For the same compound, the Cmax ([12]; 75 mg, 75 mg/10% PG (20 min)) was 1290 ng/mL, the AUC ([12]; 150 mg, 150 mg/10% PG (20 min)) was 3600 ng·h/mL and the AUC [12, 15] was 3220 ng·h/mL. It also gave a Cmax ([12]; 150 mg, 150 mg/10% PG (20 min)) of 2350 ng/mL, a Cmax [12, 15] of 1870 ng/mL and an AUC at 13 week ([13]; female) of 20400 ng·h/mL. For the same compound, the AUC at 13 week ([13]; male) was 7260 ng·h/mL, the AUC at 13 week ([14]; female) was 26600 ng·h/mL and the AUC at 13 week ([14]; male) was 26900 ng·h/mL.
